Measured values published in patent US20040102454A1, “Phenylahistin and the phenylahistin analogs, a new class of anti-tumor compounds” (priority 1998, published 2004).

Tests used:
P388 cells = test: P388 proliferation, Alamar Blue assay; format: cell-based, murine; details: Mus musculus, P388; Alamar Blue assay (Table 4); read-out: IC50 for P388 Proliferation
Method: For this example, the Alamar Blue™ assay was performed as follows. Exponentially growing P388 cells were seeded into 96-well tissue culture plates (5×10^3 cells/100 μl/well) and cultured in RPMI 1640 medium supplemented with 10% fetal bovine serum for 16 h. Compounds (DMSO solution) were then added to each well at various concentrations, and the cells were cultured for an additional 48 h. Living cells were counted using Alamar Blue™ (BioSource International, Camarillo, Calif.), according to the method of Ahmed, S. A. et al., J. Immunol. Methods, 170, 211 (1994).

[1] = tested on: Microtubule protein from bovine brain; test: Microtubule protein polymerization assay (turbidity); format: biochemical; details: microtubule protein 1.5 mg/ml (Table 4); read-out: IC50 for Microtubule Protein Polymerization
Method: Microtubule protein was prepared from bovine brain tissue by two cycles of assembly and disassembly according to the method of Tiwari, S. C. et al. Anal. Biochem, (1993), 215, 96-103. Tubulin was purified from microtubule protein by phosphocellulose chromatography see Algaier, J. et al. Biochim. Biophys. Acta, (1988), 954, 235-43, and tubulin purity was evaluated by polyacrylamide gel electrophoresis, as in Laemmli, U.K., Nature, (1970), […], 680-85. […] Protein concentrations were determined using the Coomassie® Protein Assay Reagent from Pierce (Rockford, Ill.).
Polymerization of microtubule protein was monitored by an increase in turbidity at 37° C. in microtubule assembly buffer containing 100 mM MES, 0.5 mM MgCl2, 1 mM EGTA and 1 mM GTP. See Johnson, K. A. et al., J. Mol. Biol., (1977), 117, 1-31. Polymerization of purified tubulin was measured using the same method except the microtubule assembly buffer contained 4 M glycerol. See Lee, J. C. et al., Biochemistry, (1975), 14, 5183-87. Microtubule protein and tubulin polymerization was initiated by a temperature shift from 0° C. to 37° C. and turbidity was measured on a DU-20 thermocontrolled spectrophotometer from Beckman (Fullerton, Calif.) at 360 nm. Drugs were dissolved in dimethyl sulfoxide (DMSO), which was used in all experiments at a final concentration of 2% (v/v).
For this example, the microtubule protein polymerization assay was performed as follows. Microtubule protein was prepared from bovine brain tissue by two cycles of assembly and disassembly. Polymerization of microtubule protein was monitored by an increase in turbidity at 37° C. in microtubule assembly buffer containing 100 mM MES, 0.5 mM MgCl2, 1 mM EGTA and 1 mM GTP. The polymerization of microtubule protein was initiated by a temperature shift from 0° C. to 37° C. Turbidity was measured on a thermo-controlled spectrophotometer (Beckman DU-20, Fullerton, Calif.) at 360 nm. Compounds were dissolved in DMSO, which was used in all experiments at a final concentration of 2% (v/v).

PARP in Jurkat cells = test: Cleavage of poly(ADP-ribose) polymerase (PARP), western blotting; format: cell-based; details: 10 hours after exposure
Text: In order to assess the ability of t-butyl-phenylahistin to induce apoptosis in Jurkat cells, cleavage of poly(ADP-ribose) polymerase (PARP) was monitored. PARP is a 116 kDa nuclear protein that is one of the main intracellular targets of Caspase-3. The cleavage of PARP generates a stable 89 kDa product, and this process can be easily monitored by western blotting. Cleavage of PARP by caspases is one of the hallmarks of apoptosis, and as such serves as an excellent marker for this process.

IC50 (P388 cells) [µM]	melting point	IC50 [1] [µM]	Compound	cleavage of PARP (PARP in Jurkat cells)
7.5	285 to 286 °C (dec.)	> 200	Cc1[nH]cnc1C=C1NC(=O)C(Cc2ccccc2)NC1=O (stereo not shown) [Compound 9]	–
–	–	–	C=CC(C)(C)c1nc[nH]c1/C=C1\NC(=O)C(Cc2ccccc2)NC1=O (stereo not shown) [Halimide]	active at inducing cleavage of PARP
